Here are results for 19 compounds from ChEMBL document CHEMBL5137107, “Optimization of hERG and Pharmacokinetic Properties for Basic Dihydro-8H-purin-8-one Inhibitors of DNA-PK” (ACS Med Chem Lett, 2022).

A short description of data set [1]: Oral bioavailability in Beagle dog at 2 mg/kg. Type of data set: ADME, organism-based, Canis lupus familiaris. As to conditions: in vivo.
The nature of data set [2]: Oral bioavailability in Han Wistar rat at 5 mg/kg. The class given is ADME, organism-based. As to conditions: in vivo.
The nature of data set [3]: Acid dissociation constant, pKa of the compound. Type of data set: physicochemical.
Data set [4] in a line: Solubility of the compound in FaSSIF at pH 6.5. Type of data set: physicochemical.
Data set [5] can be described thus: Volume of distribution at steady state in Beagle dog at 2 mg/kg, po or 1 mg/kg, iv. As to conditions: in vivo. Type of data set: ADME, organism-based, Canis lupus familiaris.
Data set [6] can be described thus: 1-Octanol/aqueous buffer partition coefficient, logD of the compound at pH 7.4 by shake flask technique based UPLC analysis. The class given is physicochemical.
Data set [7] can be described thus: Apparent permeability of compound across apical to basal membrane in human Caco-2 by ABBA assay. Type of data set: ADME, cell-based.
Data set [8] in a line: Volume of distribution at steady state in Han Wistar rat at 5 mg/kg, po or 2 mg/kg, iv. The class given is ADME, organism-based. As to conditions: in vivo.
Data set [9] is described as follows: Cardiotoxicity in guinea pig assessed as unbound concentration required to increase in QTc level by 10% administered as iv infusion consecutively for 15 mins. Type of data set: toxicity, organism-based, Cavia porcellus. As to conditions: in vivo.
Data set [10] in a line: Solubility of the compound. Type of data set: physicochemical.
A short description of data set [11]: Cardiotoxicity in guinea pig assessed as increase in QTc level by measuring unbound Cmax at 3 to 30 mg/kg administered as iv infusion consecutively for 15 mins. The class given is toxicity, organism-based, Cavia porcellus. As to conditions: in vivo, dose 3-30 mg/kg.

SMILES strings stand for the structures. Values after ≈ are worked out from the molar mass of the structure shown.

`Cc1cc2ncccc2cc1Nc1ncc2c(n1)n([C@@H]1CNC[C@H]1F)c(=O)n2C`: the bioavailability came to 52% in data set [1] and 58% in data set [2]. The pKa in [3] was determined as 7.3. For the same compound, the solubility in [4] was 872 µM (≈ 343 µg/mL). For the same compound, the Vdss in data set [5] stood at 5.4 L/kg; in data set [8] it was 2.1 L/kg. Moreover, in [6], the logD turned out to be 1.6. Further, the Papp A→B in data set [7] amounted to 9.4 ×10⁻⁶ cm/s.
Regarding `Cc1cc2ncnn2cc1Nc1ncc2c(n1)n(C1CCN(C)CC1)c(=O)n2C`, the logD in [6] was 0.3.
As to `Cc1cc2ncccc2cc1Nc1ncc2c(n1)n([C@@H]1CNC[C@@H]1F)c(=O)n2C`, in [3], the pKa amounted to 7.2. Besides, in [6], the logD came to 1.7.
`Cc1cc2ncccc2cc1Nc1ncc2c(n1)n([C@@H]1CN(C)C[C@H]1F)c(=O)n2C` yielded a pKa in data set [3] of 6.5. In data set [6], this compound yielded a log distribution coefficient (logD) of 2.1.
In the case of `Cc1cc2ncccc2cc1Nc1ncc2c(n1)n(C1CCOCC1)c(=O)n2C`, the pH-dependent lipophilicity (logD) in data set [6] was 2.5.
On the same count and under the same terms, to `Cc1cc2nnccc2cc1Nc1ncc2c(n1)n(C1CCOCC1)c(=O)n2C` belongs 2.2.
Turning to `Cc1cc2ncccc2cc1Nc1ncc2c(n1)n([C@@H]1CCN(C)C1)c(=O)n2C`, the pKa in data set [3] was 8.7. Besides, the logD in data set [6] stood at 1.2.
In the case of `Cc1cc2ncccc2cc1Nc1ncc2c(n1)n([C@@H]1CN(C)C[C@@H]1F)c(=O)n2C`, the logD in data set [6] amounted to 2.2.
In turn, `Cc1cc2ncncc2cc1Nc1ncc2c(n1)n(C1CCOCC1)c(=O)n2C` displayed a pH-dependent lipophilicity (logD) in data set [6] of 2.2.
Consider `Cc1cc2ncccc2cc1Nc1ncc2c(n1)n(C1CCN(C)CC1)c(=O)n2C`, for which, in [9], the concentration for an effect of 10% (EC10) is 2.3 µM. The same compound displayed a pKa in data set [3] of 8.2. Also, the concentration in solution in data set [10] (solubility) came to 178 µM (≈ 71.8 µg/mL). Besides, the logD in data set [6] turned out to be 1.8. Also, the Papp A→B in data set [7] turned out to be 14 ×10⁻⁶ cm/s.
Turning to `Cc1cc2ncccc2cc1Nc1ncc2c(n1)n([C@H]1CCN(CCO)C1)c(=O)n2C`, in data set [3], the pKa was determined as 8.2. The logD in data set [6] was 0.9. Besides, the Papp A→B in data set [7] was 2.6 ×10⁻⁶ cm/s.
Consider `Cc1cc2ncccc2cc1Nc1ncc2c(n1)n(C1CCNCC1)c(=O)n2C`, for which the logD in data set [6] came out at 0.5. In data set [7], the Papp A→B is 0.7 ×10⁻⁶ cm/s.
The compound `Cc1cc2nccnc2cc1Nc1ncc2c(n1)n(C1CCOCC1)c(=O)n2C` had a logD in data set [6] of 2.2.
On to `Cc1cc2nccnc2cc1Nc1ncc2c(n1)n(C1CCN(C)CC1)c(=O)n2C`, for which the logD in data set [6] was determined as 1.2.
As to `Cc1cc2ncccc2cc1Nc1ncc2c(n1)n([C@H]1CCN(C3COC3)C1)c(=O)n2C`, the logD in data set [6] is 1.5.
Still for that read-out and setting: to `Cc1cc2nnccc2cc1Nc1ncc2c(n1)n(C1CCN(C)CC1)c(=O)n2C` belongs 1.2.
As to `Cc1cc2ncccc2cc1Nc1ncc2c(n1)n([C@H]1CCN(C)C1)c(=O)n2C`, in data set [11], the EC10 turned out to be 3.9 µM. The same compound registered a pKa in [3] of 8.9. In addition, in data set [6], the logD turned out to be 1.1. In addition, the Papp A→B in data set [7] was 19 ×10⁻⁶ cm/s.
In [6], `COCCN1CC[C@H](n2c(=O)n(C)c3cnc(Nc4cc5cccnc5cc4C)nc32)C1` displayed a logD of 1.7.
For the compound `Cc1cc2ncnn2cc1Nc1ncc2c(n1)n(C1CCOCC1)c(=O)n2C` [AZD-7648], in data set [6], the logD was found to be 1.3.
